These are literature values, as cited in PMC7179723, “Self-Assembly of Minimal Peptoid Sequences” (ACS Macro Letters, 2020).

The conditions of the data set: assembly requires dilution from an organic solution; literature statement. The source says:
Control of self-assembly using sequence-specific polymers such as peptides and their mimics is a powerful approach to generating functional nanomaterials. Very short self-assembling peptides and their mimics (e.g., ≤ 5 residues) are of special interest since they are more easily scalable and they lead to insight into assembly requirements.[1] Their discovery is nontrivial since assembly propensity (e.g., hydrophobic interactions and hydrogen bonding) and favorable solvent (water) interactions must be balanced among just a few residues.[1]−[3] […] Alternatively, lamellar nanostructures were observed when the dipeptoid was precipitated in water from an ACN solution.

Regarding diphenylalanine [FF], the solubility in water result is listed as “not directly soluble in water”.
